According to patent publication US20250034136A1 (Nimbus Wadjet, Inc., priority 2023, published 2025):

What was measured:
[1] = biological target: WRN (BV08), human Werner helicase (Uniprot Q14191, amino acids 517-1235 with L1074F point mutation) (Homo sapiens (Human), UniProt Q14191, L1074F); experiment: WRN (BV08) ADP-Glo assay; assay type: biochemical; settings: class symbols A-E, read-out: ADP-Glo_hWRN_IC50
[2] = test system: p21 induction in HCT116 cells; experiment: p21 induction in HCT116 cells; assay type: cell-based; settings: Homo sapiens, HCT-116, 24 h, HCT116 cells, 24 h compound incubation; read-out: P21_EC50
In short: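 HCT116 cells, 2,000/well, treated 24 h at 37 °C with 11-point compound dilutions in duplicate. Fixed, then immunostained for p21 and GAPDH and read by near-IR imaging at 800/700 nm. Normalized to DMSO (low) and reference WRN inhibitor (high) controls; EC50 from non-linear regression.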

Sequence of WRN (BV08), human Werner helicase (Uniprot Q14191, amino acids 517-1235 with L1074F point mutation) (Q14191 other isoform, or with tags, fused parts or gaps L1074F (already in the parent)): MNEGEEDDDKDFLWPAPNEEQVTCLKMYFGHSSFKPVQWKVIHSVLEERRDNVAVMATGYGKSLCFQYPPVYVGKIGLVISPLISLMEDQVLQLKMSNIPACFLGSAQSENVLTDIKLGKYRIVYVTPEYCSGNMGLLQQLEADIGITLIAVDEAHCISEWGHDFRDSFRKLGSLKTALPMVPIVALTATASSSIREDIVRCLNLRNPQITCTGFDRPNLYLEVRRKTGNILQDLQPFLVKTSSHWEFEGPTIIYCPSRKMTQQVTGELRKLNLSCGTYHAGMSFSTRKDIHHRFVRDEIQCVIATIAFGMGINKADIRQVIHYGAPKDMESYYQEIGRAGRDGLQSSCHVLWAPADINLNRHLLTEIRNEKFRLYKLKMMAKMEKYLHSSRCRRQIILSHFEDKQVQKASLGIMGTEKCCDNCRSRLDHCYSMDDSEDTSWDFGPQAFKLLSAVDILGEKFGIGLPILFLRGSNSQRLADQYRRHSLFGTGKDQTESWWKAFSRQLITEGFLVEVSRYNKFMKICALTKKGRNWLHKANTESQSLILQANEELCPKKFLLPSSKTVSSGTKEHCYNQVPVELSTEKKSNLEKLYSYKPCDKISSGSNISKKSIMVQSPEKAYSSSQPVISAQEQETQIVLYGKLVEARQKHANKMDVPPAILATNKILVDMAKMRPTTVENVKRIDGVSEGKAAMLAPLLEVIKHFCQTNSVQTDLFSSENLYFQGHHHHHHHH

Row | Structure (SMILES) | IC50 [1] [nM] | EC50 [2] [nM]
1 | CCc1c(N2CCN(C(=O)c3c(OC)ncc(C)c3O)[C@H]3CC[C@@H]32)c(=O)c2nc(C)c(C)nc2n1CC(=O)Nc1ccc(C(F)(F)F)cc1Cl [I-127, N-[2-chloro-4-(trifluoromethyl)phenyl]-2-{6-ethyl-7-[(1S,6S)-5-(4-hydroxy-2-methoxy-5-methylpyridine-3-carbonyl)-2,5-diazabicyclo[4.2.0]octan-2-yl]-2,3-dimethyl-8-oxo-5H,8H-pyrido[2,3-b]pyrazin-5-yl}acetamide] | 5 to 50 | < 500
2 | CCc1c(N2CCN(C(=O)c3ncnc(C)c3O)[C@H]3CC[C@@H]32)c(=O)c2nc(C)c(C)nc2n1CC(=O)Nc1ccc(C(F)(F)F)cc1F [I-128, 2-(6-ethyl-7-((1S,6S)-5-(5-hydroxy-6-methylpyrimidine-4-carbonyl)-2,5-diazabicyclo[4.2.0]octan-2-yl)-2,3-dimethyl-8-oxopyrido[2,3-b]pyrazin-5(8H)-yl)-N-(2-fluoro-4-(trifluoromethyl)phenyl)acetamide] | 5 to 50 | < 500
3 | CCc1c(N2CCN(C(=O)c3ncnc(C)c3O)[C@H]3CC[C@@H]32)c(=O)c2nc(N(C)C)c(C)nc2n1CC(=O)Nc1ccc(C(F)(F)F)cc1F [I-129] | 5 to 50 | < 500
4 | CCc1c(N2CCN(C(=O)c3ncnc(C)c3O)[C@H]3CCC[C@@H]32)c(=O)c2nc(N(C)C)cnc2n1CC(=O)Nc1ccc(C(F)(F)F)cc1Cl [I-130, 2-{7-[(4aS,7aS)-4-(5-hydroxy-6-methylpyrimidine-4-carbonyl)-octahydro-1H-cyclopenta[b]pyrazin-1-yl]-2-(dimethylamino)-6-ethyl-8-oxo-5H,8H-pyrido[2,3-b]pyrazin-5-yl}-N-[2-chloro-4-(trifluoromethyl)phenyl]acetamide] | 5 to 50 | < 500

Results, then the compound that gave them:

Row | IC50 [1] [nM] | EC50 [2] [nM] | Structure (SMILES)
5 | 5 to 50 | 500 to 2000 | CCc1c(N2CCN(C(=O)c3ncnc(C)c3O)CC2)c(=O)c2nc(N(C)C3CCC3)cnc2n1CC(=O)Nc1ccc(C(F)(F)F)cc1Cl [I-131, N-[2-chloro-4-(trifluoromethyl)phenyl]-2-{2-[cyclobutyl(methyl)amino]-6-ethyl-7-[4-(5-hydroxy-6-methylpyrimidine-4-carbonyl)piperazin-1-yl]-8-oxo-5H,8H-pyrido[2,3-b]pyrazin-5-yl}acetamide]
6 | 5 to 50 | < 500 | CCc1c(N2CCN(C(=O)c3ncnc(C)c3O)CC2)c(=O)c2nc(N(C)C)cnc2n1CC(=O)Nc1ccc(S(F)(F)(F)(F)F)cc1Cl [I-132, N-[2-chloro-4-(pentafluoro-lambda6-sulfanyl)phenyl]-2-[2-(dimethylamino)-6-ethyl-7-[4-(5-hydroxy-6-methylpyrimidine-4-carbonyl)piperazin-1-yl]-8-oxo-5H,8H-pyrido[2,3-b]pyrazin-5-yl]acetamide]
7 | 5 to 50 | > 5000 | CCc1c(N2CCN(C(=O)c3ncnc(C)c3O)CC2)c(=O)c2nc(N(C)C)cnc2n1CC(=O)Nc1c(F)cc(C(F)(F)F)cc1Cl [I-133, N-[2-chloro-6-fluoro-4-(trifluoromethyl)phenyl]-2-[2-(dimethylamino)-6-ethyl-7-[4-(5-hydroxy-6-methylpyrimidine-4-carbonyl)piperazin-1-yl]-8-oxo-5H,8H-pyrido[2,3-b]pyrazin-5-yl]acetamide]
8 | 50 to 100 | > 5000 | CCc1c(N2CCN(C(=O)c3ncnc(C)c3O)CC2)c(=O)c2nc(/C=C/C(=O)N(C)C)cnc2n1CC(=O)Nc1ccc(C(F)(F)F)cc1Cl [I-134, (2E)-3-[5-({[2-chloro-4-(trifluoromethyl)phenyl]carbamoyl}methyl)-6-ethyl-7-[4-(5-hydroxy-6-methylpyrimidine-4-carbonyl)piperazin-1-yl]-8-oxo-5H,8H-pyrido[2,3-b]pyrazin-2-yl]-N,N-dimethylprop-2-enamide]
